Measurements taken from paper PMC2788670 (Journal of medicinal chemistry, 2009).
“Also recorded” adds a separate entry of the source.

What was measured:
Type in all cases: cell-based
[1] = tested on: HIV-2 KR.X3; test: HIV-2 KR.X3 single-round infection assay in TZM-bl cells; conditions: for IC50 (µM) HIV-2 KR.X3: TZM-bl cells, 200 TCID50, 2 days, luciferase, average of 3 independent experiments, Inactive = TC50/IC50 < 2; for reduction of anti-HIV-2 activity after glycine addition compared to precursor: 13 versus 8, 14 versus 9
[2] = tested on: HIV-2 KR.X3-YU-2/V3; test: HIV-2 KR.X3-YU-2/V3 chimeric virus infection assay in TZM-bl cells; conditions: chimeric virus with V3 loop of HIV-1 YU-2; Figure 1, 4 independent experiments
[3] = tested on: HIV-1 NL4-3; test: HIV-1 NL4-3 single-round infection assay in TZM-bl cells; conditions: 200 TCID50, 2 days, luciferase, average of 3 independent experiments, Inactive = TC50/IC50 < 2

SMILES | IC50 (µM) HIV-2 KR.X3 [1] | IC50 (µM) HIV-1 NL4-3 [3] | further results
C=C(C)[C@@H]1CC[C@]2(C(=O)NCCCCCCCNC(C)=O)CC[C@]3(C)[C@H](CC[C@@H]4[C@@]5(C)CC[C@H](O)C(C)(C)[C@@H]5CC[C@]43C)[C@@H]12 [Compound 4, [[N-[3β-hydroxyl-lup-20(29)-en-28-oyl]-7-aminoheptyl]-carbamoyl]methane] | Inactive |  | 
C=C(C)[C@@H]1CC[C@]2(C(=O)NCCCCCCCC(=O)O)CC[C@]3(C)[C@H](CC[C@@H]4[C@@]5(C)CC[C@H](O)C(C)(C)[C@@H]5CC[C@]43C)[C@@H]12 [Compound 11] | Inactive |  | 
C=C(C)[C@@H]1CC[C@]2(C(=O)NCCCCCC(=O)NCC(=O)NCC(=O)O)CC[C@]3(C)[C@H](CC[C@@H]4[C@@]5(C)CC[C@H](O)C(C)(C)[C@@H]5CC[C@]43C)[C@@H]12 [Compound 21] |  |  | less potent against HIV-2 than 9 [1]: approximately 10 fold
C=C(C)[C@@H]1CC[C@]2(C(=O)NCCCCCC(=O)NCC(=O)O)CC[C@]3(C)[C@H](CC[C@@H]4[C@@]5(C)CC[C@H](O)C(C)(C)[C@@H]5CC[C@]43C)[C@@H]12 [Compound 14] |  |  | reduction of anti-HIV-2 activity after glycine addition compared to precursor [1]: approximately 2 fold; HIV-2 KR.X3-YU-2/V3 less sensitive compared to HIV-2 KR.X3 [2]: approximately 5 fold
C=C(C)[C@@H]1CC[C@]2(C(=O)NCCCC(=O)O)CC[C@]3(C)[C@H](CC[C@@H]4[C@@]5(C)CC[C@H](O)C(C)(C)[C@@H]5CC[C@]43C)[C@@H]12 [Compound 7] |  | Inactive | 
C=C(C)[C@@H]1CC[C@]2(C(=O)NCCCCCNC(C)=O)CC[C@]3(C)[C@H](CC[C@@H]4[C@@]5(C)CC[C@H](O)C(C)(C)[C@@H]5CC[C@]43C)[C@@H]12 [Compound 2] | Inactive | Inactive | 
C=C(C)[C@@H]1CC[C@]2(C(=O)O)CC[C@]3(C)[C@H](CC[C@@H]4[C@@]5(C)CC[C@H](OC(=O)CC(C)(C)C(=O)O)C(C)(C)[C@@H]5CC[C@]43C)[C@@H]12 [Compound 22, 3-O-(3’,3’-dimethylsuccinyl)-betulinic acid, reference compound] | did not inhibit HIV-2 replication; also recorded: Inactive |  | 
C=C(C)[C@@H]1CC[C@]2(C(=O)NCCCCCCNC(C)=O)CC[C@]3(C)[C@H](CC[C@@H]4[C@@]5(C)CC[C@H](O)C(C)(C)[C@@H]5CC[C@]43C)[C@@H]12 [Compound 3] | completely inactive |  | 
C=C(C)[C@@H]1CC[C@]2(C(=O)NCCCCCCCC(=O)N[C@@H](CC(C)C)[C@H](O)CC(=O)O)CC[C@]3(C)[C@H](CC[C@@H]4[C@@]5(C)CC[C@H](O)C(C)(C)[C@@H]5CC[C@]43C)[C@@H]12 [Compound 17, reference compound] |  |  | anti-HIV-2 activity less potent than its anti-HIV-1 activity ([1]; HIV-2 KR.X3 versus HIV-1 NL4-3): about 70 times
C=C(C)[C@@H]1CC[C@]2(C(=O)NCCCC(=O)NCC(=O)O)CC[C@]3(C)[C@H](CC[C@@H]4[C@@]5(C)CC[C@H](O)C(C)(C)[C@@H]5CC[C@]43C)[C@@H]12 [Compound 12] |  | Inactive | 
C=C(C)[C@@H]1CC[C@]2(C(=O)NCCCCCC(=O)N[C@@H](Cc3ccc(O)cc3)C(=O)O)CC[C@]3(C)[C@H](CC[C@@H]4[C@@]5(C)CC[C@H](O)C(C)(C)[C@@H]5CC[C@]43C)[C@@H]12 [Compound 19] |  | Inactive | 
C=C(C)[C@@H]1CC[C@]2(C(=O)O)CC[C@]3(C)[C@H](CC[C@@H]4[C@@]5(C)CC[C@H](O)C(C)(C)[C@@H]5CC[C@]43C)[C@@H]12 [Compound 1, Betulinic acid, reference compound] | did not exhibit anti-HIV-1 or anti-HIV-2 activity; also recorded: Inactive | did not exhibit anti-HIV-1 or anti-HIV-2 activity; also recorded: Inactive | 
C=C(C)[C@@H]1CC[C@]2(C(=O)NCCCCCCCCNC(C)=O)CC[C@]3(C)[C@H](CC[C@@H]4[C@@]5(C)CC[C@H](O)C(C)(C)[C@@H]5CC[C@]43C)[C@@H]12 [Compound 5] | Inactive |  | 
C=C(C)[C@@H]1CC[C@]2(C(=O)NCCCCC(=O)NCC(=O)O)CC[C@]3(C)[C@H](CC[C@@H]4[C@@]5(C)CC[C@H](O)C(C)(C)[C@@H]5CC[C@]43C)[C@@H]12 [Compound 13] |  | Inactive | reduction of anti-HIV-2 activity after glycine addition compared to precursor [1]: approximately 15 fold
C=C(C)[C@@H]1CC[C@]2(C(=O)NCCCCCCNC(=O)CC(=O)O)CC[C@]3(C)[C@H](CC[C@@H]4[C@@]5(C)CC[C@H](O)C(C)(C)[C@@H]5CC[C@]43C)[C@@H]12 [Compound 6] | Inactive |  | 
